Assay results reported in paper PMC9452538, “The antimicrobial peptide LI14 combats multidrug-resistant bacterial infections” (Communications Biology, 2022).
Where two headings read alike, the source gives them in different places. Peptide text beside a SMILES is read from it.

Assays:
MRSA T144 [1] = experiment: microbe, parasite or virus in culture; type: cell-based, Staphylococcus aureus
Procedure: (§1) An antimicrobial activity study was conducted on all peptides against a panel of laboratory bacteria, including ATCC source and clinical isolates with resistance determinants. According to CLSI2021 guidelines, we tested the minimum inhibitory concentrations (MICs) of peptides using standard broth micro-dilutions. Briefly, bacteria grown to exponential phase were diluted in 1:1000 to MHB, subsequently, equivalent amounts of bacterial suspension (1.5 × 10^6 CFUs/mL) were mixed with different concentrations of peptides in a sterilized 96-well microtiter plate (Corning).

S. aureus ATCC 29213 = experiment: microbe, parasite or virus in culture; type: cell-based, Staphylococcus aureus
Procedure: as §1

MRSA 1518 = experiment: microbe, parasite or virus in culture; type: cell-based, Staphylococcus aureus
Procedure: as §1

MRSA 1530 = experiment: microbe, parasite or virus in culture; type: cell-based, Staphylococcus aureus
Procedure: as §1

E. faecalis 1F-1 = experiment: microbe, parasite or virus in culture; type: cell-based
Procedure: as §1

[2] = test system: E. faecalis A4 (VRE, VanA); experiment: microbe, parasite or virus in culture; type: cell-based
Procedure: as §1

[3] = test system: S. enteritidis ATCC 13076; experiment: microbe, parasite or virus in culture; type: cell-based
Procedure: as §1

E. faecium 5F-10 = experiment: microbe, parasite or virus in culture; type: cell-based, Enterococcus faecium
Procedure: as §1

E. coli ATCC 25922 = experiment: microbe, parasite or virus in culture; type: cell-based, Escherichia coli
Procedure: as §1

[4] = test system: E. coli B2 (blaNDM-5 + mcr-1); experiment: microbe, parasite or virus in culture; type: cell-based, Escherichia coli
Procedure: as §1

E. coli 1F28 (tet(X4)) = experiment: microbe, parasite or virus in culture; type: cell-based, Escherichia coli
Procedure: as §1

E. coli B3-1 (tet(X4)) = experiment: microbe, parasite or virus in culture; type: cell-based, Escherichia coli
Procedure: as §1

E. coli C3 (blaNDM-1) = experiment: microbe, parasite or virus in culture; type: cell-based, Escherichia coli
Procedure: as §1

E. coli CP131 (mcr-3) = experiment: microbe, parasite or virus in culture; type: cell-based, Escherichia coli
Procedure: as §1

E. coli G6 (blaNDM-5) = experiment: microbe, parasite or virus in culture; type: cell-based, Escherichia coli
Procedure: as §1

E. coli G92 (mcr-1) = experiment: microbe, parasite or virus in culture; type: cell-based, Escherichia coli
Procedure: as §1

A. baumannii ATCC 19609 = experiment: microbe, parasite or virus in culture; type: cell-based, Acinetobacter baumannii
Procedure: as §1

[5] = test system: A. baumannii C222 (tet(X6)); experiment: microbe, parasite or virus in culture; type: cell-based, Acinetobacter baumannii
Procedure: as §1

P. aeruginosa PA14 = experiment: microbe, parasite or virus in culture; type: cell-based, Pseudomonas aeruginosa
Procedure: as §1

[6] = test system: K. pneumoniae ATCC 700603; experiment: microbe, parasite or virus in culture; type: cell-based, Klebsiella pneumoniae
Procedure: as §1

[7] = test system: K. pneumoniae D120 (mcr-8); experiment: microbe, parasite or virus in culture; type: cell-based, Klebsiella pneumoniae
Procedure: as §1

[8] = test system: P. cibarius HNCF44W (blaNDM-1 + tet(X6)); experiment: organism not typed; type: cell-based
Procedure: as §1

MRSA T144 [9] = type: cell-based, Staphylococcus aureus
Procedure: (§2) MRSA T144 and E. coli B2 in the exponential growth phase were incubated with LI14 peptide supplemented with 10 mM Na^+, K^+, Mg^2+, 10% Dulbecco’s modified Eagle medium (DMEM), and 10% fetal bovine serum (FBS) for 16–18 h. The stability of LI14 was evaluated by the change of its antibacterial activity under different conditions.
(§3) LI14 were preincubated for 1 h at various temperatures (40–121 °C), pH (2–12), and proteases (pepsin, trypsin, and papain, final concentration 1 mg/mL). […] Following the incubation with the proteases, the leftover protease was precipitated with acetonitrile and removed by centrifugation at 3000 × g, followed by a MIC test.
(§4) Supplementary Table 4 Thermal, pH, salts and protease stability of AMPs against
(§5) MRSA T144 and E. coli B2 (MIC, μg/mL).
(§6) Treatment MRSA T144 E. coli B2

E. coli B2 = type: cell-based, Escherichia coli
Procedure: as §2, §3, §4, §5, §6

[10] = test system: S. aureus 215 (cfr + LZD^R); experiment: MIC broth microdilution; type: cell-based, Staphylococcus aureus; conditions: S. aureus 215 (cfr + LZD^R); MHB, 16-18 h, 37 °C
Procedure: as §1

S. aureus G16 (RIF^R) = experiment: MIC broth microdilution; type: cell-based, Staphylococcus aureus; conditions: S. aureus G16 (RIF^R); MHB, 16-18 h, 37 °C
Procedure: as §1

E. coli DH5α (PUC19) = experiment: MIC broth microdilution; type: cell-based, Escherichia coli; conditions: engineered E. coli DH5α (PUC19); MHB, 16-18 h, 37 °C
Procedure: as §1

[11] = test system: E. coli DH5α (PUC19-mcr-1); experiment: MIC broth microdilution; type: cell-based, Escherichia coli; conditions: engineered E. coli DH5α (PUC19-mcr-1); MHB, 16-18 h, 37 °C
Procedure: as §1

MDR E. coli B2 = experiment: Checkerboard assay with LI14; type: cell-based, Escherichia coli
Procedure: Through checkerboard assay using two-fold serially diluted drugs (8 × 8 matrix), we evaluated the synergistic effects of LI14 with different mechanisms of antibiotics. The absorbance of cultures at 600 nm was determined by a Microplate reader after 18 h of incubation with (1.5 × 10^6 CFUs/mL) bacterial suspension. The FIC index (FICI) was calculated by performing two biological replicates for each combination. The formula is as follows: FIC index = FICIa + FICIb = MICab/MICa + MICba/Mb. An FIC index of ≤0.5 indicates synergy.
a/bMICs of antibiotics in the absence or presence of ¼ MIC of LI14.
cDegree of antibiotics potentiation in the presence of ¼ MIC of LI14.
–, none of potentiation activity.

CC[C@H](C)[C@H](NC(=O)[C@H](CCCNC(=N)N)NC(=O)[C@H](CS)NC(=O)[C@H](CC(C)C)NC(=O)[C@H](CCCCN)NC(=O)[C@H](CCCCN)NC(=O)[C@H](CC(C)C)NC(=O)[C@@H](NC(=O)[C@H](CCCNC(=N)N)NC(=O)[C@H](CS)NC(=O)[C@H](CC(C)C)NC(=O)[C@H](CCCCN)NC(=O)[C@H](CCCCN)NC(=O)[C@H](CC(C)C)NC(=O)[C@@H](NC(=O)[C@H](CCCNC(=N)N)NC(=O)[C@H](CS)NC(=O)[C@H](CC(C)C)NC(=O)[C@H](CCCCN)NC(=O)[C@H](CCCCN)NC(=O)[C@@H](N)CC(C)C)[C@@H](C)CC)[C@@H](C)CC)C(N)=O [LI21] (H-LKKLCRILKKLCRILKKLCRI-NH2; N-terminus and C-terminus assumed)
16 µg/mL: MIC (E. coli CP131 (mcr-3); CP131 (mcr-3)) | MIC (E. coli G6 (blaNDM-5); G6 (blaNDM-5))
> 128 µg/mL: MIC (MRSA T144 [9]; T144, 1 h) | MIC (E. coli B2; B2, 1 h)
32 µg/mL: MIC (MRSA T144 [1]; T144) | MIC (S. aureus ATCC 29213; ATCC 29213) | MIC (MRSA 1518; 1518) | MIC (MRSA 1530; 1530) | MIC ([2]; A4 (VRE, VanA)) | MIC ([3]; ATCC 13076) | MIC (E. coli 1F28 (tet(X4)); 1F28 (tet(X4))) | MIC (E. coli B3-1 (tet(X4)); B3-1 (tet(X4))) | MIC (E. coli C3 (blaNDM-1); C3 (blaNDM-1)) | MIC (E. coli G92 (mcr-1); G92 (mcr-1)) | MIC (A. baumannii ATCC 19609; ATCC 19609) | MIC ([5]; C222 (tet(X6))) | MIC (P. aeruginosa PA14; PA14) | MIC ([7]; D120 (mcr-8)) | MIC [8] | MIC (E. coli B2; B2)
64 µg/mL: MIC (E. faecalis 1F-1; 1F-1) | MIC (E. faecium 5F-10; 5F-10) | MIC (E. coli ATCC 25922; ATCC 25922) | MIC ([4]; B2 (blaNDM-5 + mcr-1)) | MIC ([6]; ATCC 700603) | MIC (MRSA T144 [9]; T144) | MIC (E. coli B2; E. coli B2, MgCl2 10 mM)

Colistin
16 µg/mL: MIC (MRSA T144 [1]; MRSA T144, MHB, 16-18 h, 37 °C) | MIC (S. aureus ATCC 29213; S. aureus ATCC 29213, MHB, 16-18 h, 37 °C) | MIC (MRSA 1518; MRSA 1518, MHB, 16-18 h, 37 °C) | MIC (MRSA 1530; MRSA 1530, MHB, 16-18 h, 37 °C) | MIC [10]
2 µg/mL: MIC (E. coli CP131 (mcr-3); E. coli CP131 (mcr-3), MHB, 16-18 h, 37 °C) | MIC [11]
64 µg/mL: MIC ([2]; E. faecalis A4 (VRE, VanA), MHB, 16-18 h, 37 °C)
8 µg/mL: MIC ([4]; E. coli B2 (blaNDM-5 + mcr-1), MHB, 16-18 h, 37 °C) | MICa of antibiotic (MDR E. coli B2; in the absence of LI14) | MICb of antibiotic (MDR E. coli B2; in the presence of ¼ MIC of LI14)
4 µg/mL: MIC (E. coli G92 (mcr-1); E. coli G92 (mcr-1), MHB, 16-18 h, 37 °C) | MIC ([7]; K. pneumoniae D120 (mcr-8), MHB, 16-18 h, 37 °C)
1 µg/mL: MIC (S. aureus G16 (RIF^R)) | MIC (P. aeruginosa PA14; P. aeruginosa PA14, MHB, 16-18 h, 37 °C) | MIC ([6]; K. pneumoniae ATCC 700603, MHB, 16-18 h, 37 °C)
0.0625 µg/mL: MIC (E. coli B3-1 (tet(X4)); E. coli B3-1 (tet(X4)), MHB, 16-18 h, 37 °C)
0.5 µg/mL: MIC (E. coli ATCC 25922; E. coli ATCC 25922, MHB, 16-18 h, 37 °C) | MIC (E. coli G6 (blaNDM-5); E. coli G6 (blaNDM-5), MHB, 16-18 h, 37 °C)
2: FIC index (MDR E. coli B2; antibiotic in combination with LI14, checkerboard 8 × 8, 18 h, ≤0.5 = synergy)
<0.125 µg/mL: MIC (E. coli C3 (blaNDM-1); E. coli C3 (blaNDM-1), MHB, 16-18 h, 37 °C) | MIC ([5]; A. baumannii C222 (tet(X6)), MHB, 16-18 h, 37 °C) | MIC (E. coli DH5α (PUC19))
>256 µg/mL: MIC ([8]; P. cibarius HNCF44W (blaNDM-1 + tet(X6)), MHB, 16-18 h, 37 °C)
0.125 µg/mL: MIC (E. coli 1F28 (tet(X4)); E. coli 1F28 (tet(X4)), MHB, 16-18 h, 37 °C) | MIC (A. baumannii ATCC 19609; A. baumannii ATCC 19609, MHB, 16-18 h, 37 °C)
0.25 µg/mL: MIC ([3]; S. enteritidis ATCC 13076, MHB, 16-18 h, 37 °C)
>64 µg/mL: MIC (E. faecalis 1F-1; E. faecalis 1F-1, MHB, 16-18 h, 37 °C) | MIC (E. faecium 5F-10; E. faecium 5F-10, MHB, 16-18 h, 37 °C)
